Results taken from patent US8853214B2, “Pyridazine compounds for controlling invertebrate pests” (BASF SE, priority 2010, dated 2014).

System: Aphis craccivora
Test: Cowpea aphid (Aphis craccivora) spray test on potted cowpea plants
Type: in vivo
Conditions: in comparison with untreated controls, population reduction assessed after 24, 72 and 120 hours
Experimental: II.1 Cowpea Aphid (Aphis craccivora)
The active compounds were formulated in 50:50 (vol:vol) acetone:water. The test solution was prepared at the day of use.
Potted cowpea plants colonized with 100-150 aphids of various stages were sprayed after the pest population had been recorded. Population reduction was assessed after 24, 72, and 120 hours.

In the case of `O=C(Nc1ccnnc1)c1ccco1` [II.31, Furan-2-carboxylic acid pyridazin-4-ylamide], the mortality at 500 ppm is reported as ≥ 75%.
